Legend:
Assay type in all cases: in vivo
[1] = system: duck salad (Heteranthera limosa); assay: Test D flooded paddy test, visual plant response rating; details: 250 g ai/ha, scale 0 to 100 (0 no effect, 100 complete control), 13 to 15 d
In short: (§1)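 Visual injury scores, 0 (no effect) to 100 (complete control), were assigned after 13 to 15 d in the greenhouse by comparison with controls. Test compounds had been added to paddy water covering soil by 3 cm at the 2-leaf stage.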

[2] = system: sedge umbrella (small-flower umbrella sedge, Cyperus difformis); assay: as above; details: 250 g ai/ha, scale 0 to 100 (0 no effect, 100 complete control), 13 to 15 d
In short: as §1

[3] = system: barnyardgrass (Echinochloa crus-galli); assay: as above; details: 250 g ai/ha, scale 0 to 100 (0 no effect, 100 complete control), 13 to 15 d
In short: as §1

[4] = system: rice (Oryza sativa); assay: as above; details: 250 g ai/ha, scale 0 to 100 (0 no effect, 100 complete control), 13 to 15 d
In short: as §1

[5] = system: Italian ryegrass (Lolium mutiflorum); assay: Test C preemergence, visual plant response rating
In short: (§2)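 Visual injury on a 0 (no effect) to 100 (complete control) scale versus untreated controls, scored approximately 10 d after treatment under greenhouse conditions. Treatments used surfactant-containing non-phytotoxic solvent formulations, sprayed onto loam–sand soil preemergence or onto one- to two-leaf plants 2–10 cm tall postemergence.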

[6] = system: kochia (Bassia scoparia); assay: Test C preemergence, visual plant response rating
In short: as §2

[7] = system: ragweed (common ragweed, Ambrosia artemisiifolia); assay: Test C preemergence, visual plant response rating
In short: as §2

[8] = system: pigweed (Amaranthus retroflexus); assay: Test C preemergence, visual plant response rating
In short: as §2

[9] = system: barnyardgrass (Echinochloa crus-galli); assay: Test C preemergence, visual plant response rating
In short: as §2

[10] = system: foxtail, giant (giant foxtail, Setaria faberi); assay: Test C preemergence, visual plant response rating
In short: as §2

[11] = system: Italian ryegrass (Lolium mutiflorum); assay: Test C postemergence, visual plant response rating
In short: as §2

[12] = system: kochia (Bassia scoparia); assay: Test C postemergence, visual plant response rating
In short: as §2

[13] = system: blackgrass (Alopecurus myosuroides); assay: Test C postemergence, visual plant response rating
In short: as §2

[14] = system: ragweed (common ragweed, Ambrosia artemisiifolia); assay: Test C postemergence, visual plant response rating
In short: as §2

[15] = system: pigweed (Amaranthus retroflexus); assay: Test C postemergence, visual plant response rating
In short: as §2

[16] = system: galium (catchweed bedstraw, Galium aparine); assay: Test C postemergence, visual plant response rating
In short: as §2

[17] = system: barnyardgrass (Echinochloa crus-galli); assay: Test C postemergence, visual plant response rating
In short: as §2

[18] = system: corn (Zea mays); assay: Test C postemergence, visual plant response rating
In short: as §2

[19] = system: wheat (Triticum aestivum); assay: Test C postemergence, visual plant response rating
In short: as §2

[20] = system: foxtail, giant (giant foxtail, Setaria faberi); assay: Test C postemergence, visual plant response rating
In short: as §2

[21] = Test C, 31 g ai/ha, 0 is no effect, 100 is complete control
[22] = Test C, 125 g ai/ha, 0 is no effect, 100 is complete control
[23] = Test C, postemergence, 125 g ai/ha

| SMILES | Plant response rating, Ducksalad (Flood) [1] | Plant response rating, Sedge, Umbrella (Flood) [2] | Plant response rating, Barnyardgrass (Flood) [3] | Plant response rating, Rice (Flood) [4] | Ryegrass, Italian plant response rating (0 to 100 scale) [5, 21] | Kochia plant response rating (0 to 100 scale) [6, 21] | Ragweed plant response rating (0 to 100 scale) [7, 21] | Pigweed plant response rating (0 to 100 scale) [8, 21] | Barnyardgrass plant response rating (0 to 100 scale) [9, 21] | Foxtail, Giant plant response rating (0 to 100 scale) [10, 21] | Ryegrass, Italian plant response rating (0 to 100 scale) ([11]; Postemergence, 31 g ai/ha) | Ryegrass, Italian plant response rating (0 to 100 scale) [11, 23] | Kochia plant response rating (0 to 100 scale) ([12]; Postemergence, 31 g ai/ha) | Kochia plant response rating (0 to 100 scale) [12, 23] | Blackgrass plant response rating (0 to 100 scale) ([13]; Postemergence, 31 g ai/ha) | Blackgrass plant response rating (0 to 100 scale) [13, 23] | Ragweed plant response rating (0 to 100 scale) ([14]; Postemergence, 31 g ai/ha) | Ragweed plant response rating (0 to 100 scale) [14, 23] | Pigweed plant response rating (0 to 100 scale) ([15]; Postemergence, 31 g ai/ha) | Pigweed plant response rating (0 to 100 scale) [15, 23] | also measured |
| --- | --- | --- | --- | --- | --- | --- | --- | --- | --- | --- | --- | --- | --- | --- | --- | --- | --- | --- | --- | --- | --- |
| CO/N=C(\c1c(O)c(C)nn(C)c1=O)c1cc(SC)cc2ccccc12 [Compound 279] | 0 | 0 | 0 | 0 | 0 | 0 | 0 | 0 | 0 | 0 | 0 | 0 | 0 | 30 | 0 | 0 | 0 | 10 | 0 | 10 | Ryegrass, Italian plant response rating (0 to 100 scale) [5, 22]: 0; Kochia plant response rating (0 to 100 scale) [6, 22]: 0; Ragweed plant response rating (0 to 100 scale) [7, 22]: 0; Pigweed plant response rating (0 to 100 scale) [8, 22]: 0; Barnyardgrass plant response rating (0 to 100 scale) [9, 22]: 0; Foxtail, Giant plant response rating (0 to 100 scale) [10, 22]: 0; Galium plant response rating (0 to 100 scale) ([16]; Postemergence, 31 g ai/ha): 0; Galium plant response rating (0 to 100 scale) [16, 23]: 0; Barnyardgrass plant response rating (0 to 100 scale) ([17]; Postemergence, 31 g ai/ha): 0; Barnyardgrass plant response rating (0 to 100 scale) [17, 23]: 0; Corn plant response rating (0 to 100 scale) ([18]; Postemergence, 31 g ai/ha): 0; Corn plant response rating (0 to 100 scale) [18, 23]: 0; Wheat plant response rating (0 to 100 scale) ([19]; Postemergence, 31 g ai/ha): 0; Wheat plant response rating (0 to 100 scale) [19, 23]: 0; Foxtail, Giant plant response rating (0 to 100 scale) ([20]; Postemergence, 31 g ai/ha): 0; Foxtail, Giant plant response rating (0 to 100 scale) [20, 23]: 0 |
| CO/N=C(/c1c(O)c(C)nn(C)c1=O)c1cccc2cc(Cl)ccc12 [Compound 159] | 0 | 0 | 0 | 0 | 0 | 0 | 70 | 30 | 40 | 0 | 20 | 80 | 70 | 80 | 10 | 30 | 70 | 90 | 90 | 100 | Ryegrass, Italian plant response rating (0 to 100 scale) ([5]; 125 g ai/ha): 80; Kochia plant response rating (0 to 100 scale) ([6]; 125 g ai/ha): 20; Ragweed plant response rating (0 to 100 scale) ([7]; 125 g ai/ha): 90; Pigweed plant response rating (0 to 100 scale) ([8]; 125 g ai/ha): 40; Barnyardgrass plant response rating (0 to 100 scale) ([9]; 125 g ai/ha): 40; Foxtail, Giant plant response rating (0 to 100 scale) ([10]; 125 g ai/ha): 50; Galium plant response rating (0 to 100 scale) ([16]; Postemergence, 31 g ai/ha): 60; Galium plant response rating (0 to 100 scale) [16, 23]: 80; Barnyardgrass plant response rating (0 to 100 scale) ([17]; Postemergence, 31 g ai/ha): 40; Barnyardgrass plant response rating (0 to 100 scale) [17, 23]: 60; Corn plant response rating (0 to 100 scale) ([18]; Postemergence, 31 g ai/ha): 10; Corn plant response rating (0 to 100 scale) [18, 23]: 30; Wheat plant response rating (0 to 100 scale) ([19]; Postemergence, 31 g ai/ha): 0; Wheat plant response rating (0 to 100 scale) [19, 23]: 10; Foxtail, Giant plant response rating (0 to 100 scale) ([20]; Postemergence, 31 g ai/ha): 50; Foxtail, Giant plant response rating (0 to 100 scale) [20, 23]: 70 |
| CO/N=C(\c1cccc(Br)c1)c1c(O)c(C)nn(C)c1=O [Compound 239] | 0 | 0 | 0 | 0 | 10 | 0 | 10 | 0 | 0 | 0 | 50 | 60 | 40 | 60 | 0 | 0 | 50 | 70 | 20 | 60 | Ryegrass, Italian plant response rating (0 to 100 scale) [5, 22]: 50; Kochia plant response rating (0 to 100 scale) [6, 22]: 10; Ragweed plant response rating (0 to 100 scale) [7, 22]: 50; Pigweed plant response rating (0 to 100 scale) [8, 22]: 10; Barnyardgrass plant response rating (0 to 100 scale) [9, 22]: 0; Foxtail, Giant plant response rating (0 to 100 scale) [10, 22]: 10; Galium plant response rating (0 to 100 scale) ([16]; Postemergence, 31 g ai/ha): 70; Galium plant response rating (0 to 100 scale) [16, 23]: 90; Barnyardgrass plant response rating (0 to 100 scale) ([17]; Postemergence, 31 g ai/ha): 10; Barnyardgrass plant response rating (0 to 100 scale) [17, 23]: 30; Corn plant response rating (0 to 100 scale) ([18]; Postemergence, 31 g ai/ha): 0; Corn plant response rating (0 to 100 scale) [18, 23]: 0; Wheat plant response rating (0 to 100 scale) ([19]; Postemergence, 31 g ai/ha): 0; Wheat plant response rating (0 to 100 scale) [19, 23]: 0; Foxtail, Giant plant response rating (0 to 100 scale) ([20]; Postemergence, 31 g ai/ha): 0; Foxtail, Giant plant response rating (0 to 100 scale) [20, 23]: 20 |

Source: US20210045385A1, “PYRIDAZINONE-SUBSTITUTED KETOXIMES AS HERBICIDES” (FMC Corporation, priority 2018, published 2021)
